Data from US6495524B1, “Benzo[b]pyran derivatives useful as external agents for the skin” (Pola Chemical Industries Inc., priority 1998, dated 2002).

Experiments:
[1] = tested on: mouse melanoma-derived cells B-16; experiment: Inhibitory activity against melanine synthesis; format: cell-based; conditions: for Inhibition Ratio (melanine synthesis) / Amount of Melanine: 4 days; for Amount of Melanine: mean ± SD of five flasks; for inhibitory activity against the melanine synthesis by melanocytes (in words): remarkable in concentrations of 0.0005 w/v% or more
Protocol: 3×10^4 cells of mouse melanoma-derived cells B-16 were inoculated in a plastic incubation flask (75 cm^3) and incubated in Eagle MEM medium containing 10% fetal bovine serum under the conditions of 5% CO2 and 37° C. Two days after the start of the incubation, the inulavosin obtained in Production Example 1 above, the acetylinulavosin obtained in Example 1, or the glucosylinulavosin obtained in Example 2 was added to the incubation flask so that its concentration in the medium became 5×10^−5 to 1×10^−3 (W/V%) as shown in Tables 1 to 3 below, and the incubation was continued for additional 4 days. After completion of the incubation, the medium was removed from the incubation flask and the flask was washed with equilibrium phosphate buffer solution (hereinafter referred as “PBS”). Thereafter, the cells adhered on the incubation flask were stripped off with a solution containing trypsin and EDTA and then the obtained mixture was centrifuged to collect the cells.
After washing the collected cells with PBS, 1N sodium hydroxide was added to the precipitate, and the mixture was heat-dissolved. After cooling, chloroform was added thereto and the mixture was stirred and centrifuged again. The resultant supernatant was measured for absorbance at 400 nm and the amount of melanine was obtained by a calibration curve prepared in advance using synthetic melanine. The amount of melanine was obtained as weight (μg) per 10^6 cells. In the experiments, five flasks were used for each concentration of the test samples.
Tables 1 to 3 show the results obtained as average values of five flasks together with standard deviations. Tables 1 to 3 show the results for inulavosin, acetylinulavosin, and glucosylinulavosin, respectively.
In addition, as a control, the amount of melanine was determined by conducting the same experiments as described above except that the compound represented by formula (I) was not added. From the amount of melanine in the absence of samples and the amount of melanine in the presence of a sample, there was obtained melanine synthesis inhibition ratio (R(%)) by the following equation. The amount of melanine in the equation was an average value obtained from five flasks.
R: Melanine synthesis inhibition ratio
A: Amount of melanine in the absence of samples
B: Amount of melanine in the presence of a sample

fish = conditions: Heterocycles, Vol. 41, No. 9, 1923-1926 (1995); cited from earlier work
Pseudomonas aeruginosa = conditions: Heterocycles, Vol. 41, No. 9, 1923-1926 (1995); cited from earlier work
Staphylococcus aureus = conditions: Heterocycles, Vol. 41, No. 9, 1923-1926 (1995); cited from earlier work

| SMILES | Inhibition Ratio (melanine synthesis) ([1]; 1 × 10^−3 W/V % in medium) [%] | Amount of Melanine ([1]; 1 × 10^−3 W/V % in medium) [μg/10^6 cells] | Inhibition Ratio (melanine synthesis) ([1]; 1 × 10^−4 W/V % in medium) [%] | Amount of Melanine ([1]; 1 × 10^−4 W/V % in medium) [μg/10^6 cells] | Inhibition Ratio (melanine synthesis) ([1]; 5 × 10^−4 W/V % in medium) [%] | Amount of Melanine ([1]; 5 × 10^−4 W/V % in medium) [μg/10^6 cells] | Inhibition Ratio (melanine synthesis) ([1]; 5 × 10^−5 W/V % in medium) [%] | Amount of Melanine ([1]; 5 × 10^−5 W/V % in medium) [μg/10^6 cells] | inhibitory activity against the melanine synthesis by melanocytes (in words) [1] | fish toxin activity (fish) | antibacterial activity (Pseudomonas aeruginosa) | antibacterial activity (Staphylococcus aureus) |
| --- | --- | --- | --- | --- | --- | --- | --- | --- | --- | --- | --- | --- |
| CC(=O)Oc1cc(C)ccc1C1(C)CC(C)(C)c2ccc(C)cc2O1 (stereo not drawn) [Acetylinulavosin, 2′-acetoxy-2,4,4,7,4′-pentamethylflavan] | 87.9 | 0.39 ± 0.18 | 25.1 | 2.42 ± 0.26 | 62.2 | 1.22 ± 0.17 | 9.3 | 2.93 ± 0.35 | have inhibitory activity against the melanine synthesis by melanocytes |  |  |  |
| Cc1ccc2c(c1)OC(C)(c1ccc(C)cc1OC1O[C@H](CO)[C@@H](O)[C@H](O)[C@H]1O)CC2(C)C (stereo partly drawn) [Glucosylinulavosin, 2′-O-glucosyl-2,4,4,7,4′-pentamethylflavan] | 80.8 | 0.62 ± 0.15 | 22.0 | 2.52 ± 0.23 | 58.2 | 1.35 ± 0.17 | 6.5 | 3.02 ± 0.33 | have inhibitory activity against the melanine synthesis by melanocytes |  |  |  |
| Cc1ccc(C2(C)CC(C)(C)c3ccc(C)cc3O2)c(O)c1 (stereo not drawn) [Inulavosin, 2′-hydroxy-2,4,4,7,4′-pentamethylflavan] | 91.3 | 0.28 ± 0.17 | 31.0 | 2.23 ± 0.24 | 73.1 | 0.87 ± 0.21 | 15.2 | 2.74 ± 0.32 | have inhibitory activity against the melanine synthesis by melanocytes | fish toxin activity | antibacterial activity | antibacterial activity |
